For 14 compounds, GI50 and TGI results are on record in PubChem BioAssay (NCI).

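A five-concentration, 48-hour dose response in 96-well plates underlies each endpoint, interpolated linearly between surrounding concentrations. GI50 = concentration required for 50% inhibition of growth. TGI: concentration producing complete growth inhibition.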

Holding throughout (test): growth of human tumour cells (NCI), 48 h
Experiment [1] concerns NCI-H522 lung.
In experiment [2] the test system is NCI/ADR-RES ovarian.
Experiment [3] has as its system OVCAR-5 ovarian.
Experiment [4] concerns OVCAR-8 ovarian.
Experiment [5] has as its system RXF 393 renal.
The subject of experiment [6] is SF-539 CNS.
Experiment [7] deals with SK-MEL-28 melanoma.
Experiment [8] has as its system T-47D breast.
Experiment [9] concerns UACC-257 melanoma.
For experiment [10], the system named is UACC-62 melanoma.

In the case of `OCC1OC(n2cnc3c(NCc4ccccc4O)ncnc32)C(O)C1O` (stereo not given), the GI50 is 0.0939 µM in experiment [1]; 0.435 µM in experiment [2]; 1.15 µM in experiment [3]; 0.225 µM in [4]; 4.62 µM in experiment [5]; 0.403 µM in [6]. Besides, the GI50 in experiment [7] was 4.15 µM; in experiment [8] it was 0.345 µM; in [9] it was above 83.6 µM; in experiment [10], 1.27 µM. Moreover, the TGI in experiment [1] was 1.54 µM; in [2], 24.4 µM; in [3], above 67.1 µM; in experiment [4] it was 8.09 µM; in experiment [5], above 100 µM; in experiment [6], 2.49 µM. The TGI in [7] is above 100 µM; in [8] it was 4.87 µM; in [9], above 100 µM; in experiment [10] it was 24.2 µM.

As to `Cc1cc(OCc2nn(CN3CCN(C)CC3)c(=S)n2/N=C/c2ccc(F)cc2)ccc1Cl`, the GI50 in experiment [1] is 15.7 µM; in experiment [2], 18.8 µM; in [3], 25 µM; in experiment [4], 18 µM; in [5], 17.5 µM; in experiment [6], 19.3 µM. The GI50 was 15.2 µM in experiment [7], 17 µM in experiment [8], 19.2 µM in [9] and 17.4 µM in experiment [10]. The TGI in experiment [1] was 30.8 µM; in experiment [2] it was 36.1 µM; in experiment [3], 49.5 µM; in [4], 32.2 µM; in experiment [5] it was 31.9 µM; in [6], 40.1 µM. The TGI in experiment [7] amounted to 31.5 µM; in experiment [8], 39.7 µM; in experiment [9] it was 36.7 µM; in [10] it was 31.6 µM.

Turning to `Cc1ccc(C2C3Cc4ccccc4C3=NN2c2ccc(S(=O)(=O)NC(=O)Nc3ccccc3)cc2)cc1` (stereo not given), the GI50 was 10.6 µM in [1]; 14.7 µM in [2]; 14.5 µM in [3]; 21.6 µM in experiment [4]; 16 µM in experiment [5]; 14.3 µM in [6]. The GI50 in experiment [7] is 22.6 µM; in [8], 36.8 µM; in experiment [9], 18.6 µM; in [10], 11.2 µM. Besides, the TGI was 28.7 µM in [1]; 38.8 µM in experiment [2]; 30.5 µM in experiment [3]; above 100 µM in experiment [4]; 38.5 µM in experiment [5]; 30.6 µM in experiment [6]. Also, the TGI in experiment [7] was 52.5 µM; in experiment [8], above 100 µM; in experiment [9], 37.8 µM; in experiment [10], 23.2 µM.

In the case of `NC(=O)c1ncn2c(=O)n(CCCl)nnc12`, the TGI in experiment [1] was found to be 384 µM; in experiment [2], 496 µM; in experiment [3], 608 µM; in experiment [4] it was 426 µM; in experiment [5], 337 µM; in experiment [6] it was 164 µM. Moreover, the TGI in experiment [7] is 562 µM; in [8], 941 µM; in experiment [9], 391 µM; in [10] it was 137 µM. The GI50 in [10] was 44.9 µM.

Turning to `Nc1no[n+]([O-])c1-c1nnc2c(n1)-c1ccccc1C2=O`, the GI50 was 2.02 µM in [1]; 3.73 µM in [2]; 1.88 µM in experiment [3]; 3.19 µM in experiment [4]; 3.22 µM in experiment [5]; 1.8 µM in [6]. Moreover, the GI50 in experiment [7] is 3.91 µM; in [8], 1.91 µM; in experiment [9] it was 1.93 µM; in experiment [10], 4.47 µM. The TGI in experiment [1] was determined as 5.87 µM; in experiment [2] it was 32.3 µM; in experiment [3], 3.77 µM; in experiment [4] it was 10.4 µM; in [5] it was 12.4 µM; in experiment [6] it was 3.67 µM. Further, the TGI in experiment [7] was determined as 13.4 µM; in [8], 5.35 µM; in experiment [9], 3.98 µM; in experiment [10], 15.7 µM.

As to `C=C1C(O)C2CC(C)(C)C(=O)C2=C(CC(C)C)C12CC2` (stereo not given), the GI50 is 85 µM in experiment [1]; above 100 µM in experiment [2]; above 100 µM in experiment [3]; above 100 µM in experiment [4]; above 100 µM in experiment [5]; above 100 µM in experiment [6]. For the same compound, the GI50 in experiment [7], in experiment [8], in experiment [9] and in experiment [10] was above 100 µM each time. Further, the TGI in experiment [1], in [2], in experiment [3], in experiment [4], in experiment [5] and in experiment [6] was above 100 µM in each case. Besides, the TGI in [7], in experiment [8], in [9] and in [10] was above 100 µM each time.

`CCC(=C(c1ccc(OCCN2CCCC2)cc1)c1ccc(OCCN2CCCC2)cc1)c1ccc(Cl)cc1`: the GI50 in experiment [1] was 0.577 µM; in experiment [2], 0.599 µM; in experiment [3] it was 0.568 µM; in experiment [4], 0.692 µM; in [5], 0.545 µM; in experiment [6], 0.558 µM. In addition, the GI50 was 0.571 µM in experiment [7], 0.498 µM in experiment [8], 0.595 µM in experiment [9] and 0.61 µM in experiment [10]. In addition, the TGI was found to be 1.24 µM in experiment [1]; 1.15 µM in experiment [2]; 1.11 µM in [3]; 1.57 µM in experiment [4]; 1.04 µM in [5]; 1.05 µM in experiment [6]. Further, the TGI in [7] was determined as 1.06 µM; in experiment [8], 1.21 µM; in experiment [9], 1.18 µM; in experiment [10], 1.16 µM.

Take `N/C(=N/S(=O)(=O)c1cc(C(=O)Nc2ccc(F)cc2)c(Cl)cc1SCc1ccccc1)Nc1ccccc1O`: the GI50 was 3.88 µM in experiment [1]; above 100 µM in [2]; 16.4 µM in experiment [3]; 1.92 µM in experiment [4]; 1.93 µM in experiment [5]; 1.94 µM in experiment [6]. Moreover, the GI50 in [7] was 2.14 µM; in experiment [8], 7.3 µM; in experiment [9], 12.2 µM; in [10], 1.84 µM. In addition, the TGI in experiment [1] was 12.5 µM; in [2], above 100 µM; in experiment [3] it was 31.3 µM; in experiment [4], 4.14 µM; in [5], 3.94 µM; in experiment [6] it was 4.23 µM. Also, the TGI in experiment [7] worked out at 4.33 µM; in experiment [8], 28.6 µM; in [9], 26.7 µM; in experiment [10], 3.43 µM.

For the compound `C1=C\CCCCN2CC[C@H]3[C@H](CCCC/C=C\CCCN4C[C@@H](CCCCC/1)C[C@@H]3C4)C2`, the GI50 was 12.6 µM in [1]; 13.8 µM in [2]; 12.5 µM in experiment [3]; 10.8 µM in experiment [4]; 2.72 µM in experiment [5]; 3.24 µM in experiment [6]. The GI50 in experiment [7] was 1.82 µM; in experiment [8], 10 µM; in experiment [9], 1.74 µM; in [10], 13.2 µM. In addition, the TGI in [1] amounted to 28.5 µM; in [2], 28.8 µM; in [3], 25.5 µM; in [4] it was 25.3 µM; in experiment [5] it was 8.17 µM; in experiment [6], 11.5 µM. The TGI was determined as 3.35 µM in [7], 27.4 µM in [8], 3.5 µM in [9] and 25.9 µM in experiment [10].

As for `Oc1ccc(/C=N/NC(=S)Nc2cccnc2)nc1`, the TGI in experiment [1] is 21.7 µM; in experiment [2] it was 9.59 µM; in [3], above 100 µM; in experiment [4] it was 12.6 µM; in experiment [5] it was above 61.2 µM; in experiment [6], 19.6 µM. For the same compound, the TGI in experiment [7] was above 100 µM; in experiment [8] it was above 100 µM; in experiment [9], 76.9 µM; in experiment [10], 29.3 µM.

Turning to `CCC(C)C(=O)OC1CCC=C2C=CC(C)C(CCC3CC(O)CC(=O)O3)C21` (stereo not given), the TGI was 21 µM in [1]; above 100 µM in experiment [2]; above 100 µM in experiment [3]; above 100 µM in [4]; above 80.6 µM in [5]; above 29.5 µM in experiment [6]. In addition, the TGI in [7], in experiment [8], in experiment [9] and in [10] was above 100 µM each time.

In the case of `CCOC(=O)c1cc2c(n1Cc1cc(OC)cc(OC)c1)-c1oncc1CC2`, the GI50 is 0.0404 µM in experiment [1]; 0.0486 µM in [2]; 0.474 µM in experiment [3]; 0.475 µM in experiment [4]; 0.136 µM in experiment [5]; 0.243 µM in [6]. Moreover, the GI50 in experiment [7] was 0.25 µM; in experiment [8], 31.1 µM; in experiment [9], 47 µM; in experiment [10] it was 0.403 µM. Besides, the TGI is above 91.5 µM in [1]; above 100 µM in experiment [3]; above 100 µM in [4]; above 100 µM in experiment [5]; 4.58 µM in [6]; above 100 µM in experiment [7]. Moreover, the TGI in experiment [8], in experiment [9] and in experiment [10] was above 100 µM each time.

Take `CC(=O)c1ccc(Oc2c3ccccc3nc3occc23)cc1`: the GI50 in experiment [1] is 4.68 µM; in experiment [2] it was 2.52 µM; in [3] it was 27.3 µM; in experiment [4] it was 3.33 µM; in experiment [5] it was 6.26 µM; in [6] it was 2.53 µM. The GI50 in [7] is 41.2 µM; in experiment [8] it was 8.21 µM; in experiment [9] it was 4.85 µM; in experiment [10], 2.11 µM. Further, the TGI in experiment [1] is above 100 µM; in experiment [2] it was 9.81 µM; in experiment [3], above 100 µM; in experiment [4], above 100 µM; in experiment [5], 56.7 µM; in experiment [6], 8.41 µM. The TGI in experiment [7] was above 100 µM; in experiment [8], above 100 µM; in [9], above 100 µM; in experiment [10] it was 7.95 µM.

In the case of `CCCCC[C@H]1C/C=C2/C(=O)C(Cl)=C[C@@H]2C/C=C\CCCC(=O)O1`, the GI50 was 0.335 µM in [1]; 0.317 µM in experiment [2]; 0.649 µM in experiment [3]; 0.328 µM in experiment [4]; 0.457 µM in experiment [5]; 0.607 µM in [6]. In addition, the GI50 in experiment [7] was 0.472 µM; in [8], 0.554 µM; in [9] it was 0.513 µM; in [10] it was 0.411 µM. Further, the TGI was 0.755 µM in experiment [1]; 1.64 µM in [2]; 1.4 µM in experiment [3]; 1.65 µM in experiment [4]; 0.868 µM in [5]; 1.61 µM in experiment [6]. Moreover, the TGI is 1.12 µM in experiment [7], 2.08 µM in experiment [8], 1.41 µM in experiment [9] and 1 µM in [10].
